From PubChem BioAssay (NCI)
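Growth conditions: 96-well plates. Treatment: test compound, 48 hours, 5 concentrations. Analysis: linear interpolation between bracketing concentrations; unreached endpoints set to highest concentration. The concentration for 50% growth inhibition is given as GI50. TGI denotes the concentration required for complete inhibition of growth.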

How the values were obtained:
Test in all cases: growth of human tumour cells (NCI), 48 h
[1] = tested on: CAKI-1 renal
[2] = tested on: LOX IMVI melanoma
[3] = tested on: MALME-3M melanoma
[4] = tested on: MCF7 breast
[5] = tested on: NCI-H23 lung
[6] = tested on: NCI-H522 lung
[7] = tested on: OVCAR-3 ovarian
[8] = tested on: SF-268 CNS
[9] = tested on: SF-539 CNS
[10] = tested on: SK-MEL-28 melanoma

COc1ccc(NC(=O)O[C@H]2[C@H](O[C@H]3[C@@H](O)COC(O[C@H]4C[C@H]5[C@@H]6CC=C7C[C@@H](O)CC[C@]7(C)[C@H]6CC[C@]5(C)[C@H]4[C@H](C)C(=O)CCC(C)C)[C@@H]3OC(C)=O)OC[C@@H](O)[C@@H]2O)cc1 (some centres not stated)
GI50 [1]: < 0.01 µM
TGI [1]: 1.01 µM
GI50 [2]: < 0.01 µM
TGI [2]: < 0.01 µM
GI50 [3]: 0.0115 µM
TGI [3]: 3.25 µM
GI50 [4]: < 0.01 µM
TGI [4]: 1.47 µM
GI50 [5]: 0.0284 µM
TGI [5]: 5.03 µM
GI50 [6]: < 0.01 µM
TGI [6]: 0.0759 µM
GI50 [7]: 1.11 µM
TGI [7]: 31.5 µM
GI50 [8]: < 0.01 µM
TGI [8]: 2.76 µM
GI50 [9]: < 0.01 µM
TGI [9]: 0.0124 µM
GI50 [10]: < 0.01 µM
TGI [10]: 0.0127 µM

COc1cc(C2C(C#N)=C(N)Oc3cc4c(cc32)OCO4)cc2c1OCO2 (configuration not stated)
GI50 [1]: 0.382 µM
TGI [1]: > 100 µM
GI50 [2]: 1 µM
TGI [2]: > 100 µM
GI50 [3]: 2.67 µM
TGI [3]: > 100 µM
GI50 [4]: 0.187 µM
TGI [4]: > 75 µM
GI50 [5]: 0.313 µM
TGI [5]: > 100 µM
GI50 [6]: 0.0926 µM
TGI [6]: 2.72 µM
GI50 [7]: 0.0928 µM
TGI [7]: 0.35 µM
GI50 [8]: 0.963 µM
TGI [8]: 97.3 µM
GI50 [9]: 0.279 µM
GI50 [10]: 1.57 µM
TGI [10]: > 100 µM

CC(=O)N[C@@H](Cc1ccc(OP(=O)(O)O)cc1)C(=O)N[C@H]1CCC(=O)N2CCC[C@@H](C(=O)NCc3ccc(O)cc3)N2C1=O
GI50 [1]: > 25 µM
TGI [1]: > 25 µM
GI50 [2]: > 25 µM
TGI [2]: > 25 µM
GI50 [3]: > 25 µM
TGI [3]: > 25 µM
GI50 [4]: > 25 µM
TGI [4]: > 25 µM
GI50 [5]: > 25 µM
TGI [5]: > 25 µM
GI50 [6]: > 25 µM
TGI [6]: > 25 µM
GI50 [7]: > 25 µM
TGI [7]: > 25 µM
GI50 [8]: > 25 µM
TGI [8]: > 25 µM
GI50 [9]: > 25 µM
TGI [9]: > 25 µM
GI50 [10]: > 25 µM
TGI [10]: > 25 µM

N#CSCC(=O)c1ccc(Cl)cc1
GI50 [1]: 0.0182 µM
TGI [1]: 1.16 µM
GI50 [2]: 3.07 µM
TGI [2]: 13.3 µM
GI50 [3]: 5.76 µM
TGI [3]: 42.9 µM
GI50 [4]: 2.53 µM
TGI [4]: 13.6 µM
GI50 [5]: 4.27 µM
TGI [5]: 32.3 µM
GI50 [6]: 2.69 µM
TGI [6]: 9.51 µM
GI50 [7]: 2.33 µM
TGI [7]: 5.26 µM
GI50 [8]: 2.58 µM
TGI [8]: 8.31 µM
GI50 [9]: 2.85 µM
TGI [9]: 14.9 µM
GI50 [10]: 6.17 µM
TGI [10]: 19.8 µM

CCOC(=O)C(Cc1ccc(OC)cc1)C(=O)OCC
GI50 [1]: 4.67 µM
TGI [1]: 16.6 µM
GI50 [2]: 3.56 µM
TGI [2]: 13.7 µM
GI50 [3]: 9.94 µM
TGI [3]: 28 µM
GI50 [4]: 3.03 µM
TGI [4]: 13.8 µM
GI50 [5]: 3.63 µM
TGI [5]: 14.9 µM
GI50 [6]: 2.53 µM
TGI [6]: 8.73 µM
GI50 [7]: 3.59 µM
TGI [7]: 11.6 µM
GI50 [8]: 3.73 µM
TGI [8]: 15.2 µM
GI50 [9]: 2.92 µM
TGI [9]: 9.43 µM

O=C1c2ccccc2C(=O)c2c(NC(=O)c3ccc4c5c(ncnc35)-c3ccccc3C4=O)cccc21
TGI [1]: > 100 µM
TGI [3]: > 100 µM
TGI [4]: > 100 µM
TGI [5]: > 100 µM
TGI [6]: > 100 µM
TGI [7]: > 100 µM
TGI [8]: > 100 µM
TGI [9]: > 100 µM
TGI [10]: > 100 µM

O=C(NO)c1cnc(N2CCN(S(=O)(=O)c3ccc4ccccc4c3)CC2)nc1
GI50 [1]: 0.114 µM
TGI [1]: 0.328 µM
GI50 [3]: 0.0224 µM
TGI [3]: 12.6 µM
GI50 [4]: 0.0369 µM
TGI [4]: > 76 µM
GI50 [5]: 0.103 µM
TGI [5]: 0.897 µM
GI50 [6]: 0.02 µM
TGI [6]: 0.104 µM
GI50 [7]: 0.0955 µM
TGI [7]: 0.386 µM
GI50 [8]: 0.169 µM
TGI [8]: 1.3 µM
GI50 [9]: 0.0762 µM
TGI [9]: 2.8 µM
GI50 [10]: 0.062 µM
TGI [10]: 1.15 µM

C=C(C)[C@@H]1CC[C@]2(C)[C@H](C=CC3=C4C[C@@](C)(CO)CC[C@]4(C)CC[C@]32C)[C@@]1(C)CCCN
GI50 [1]: 1.52 µM
TGI [1]: 2.85 µM
GI50 [2]: 1.37 µM
TGI [2]: 2.7 µM
GI50 [3]: 1.46 µM
TGI [3]: 2.91 µM
GI50 [4]: 1.6 µM
TGI [4]: 3.4 µM
GI50 [5]: 1.77 µM
TGI [5]: 3.32 µM
GI50 [7]: 1.48 µM
TGI [7]: 2.85 µM
GI50 [8]: 1.61 µM
TGI [8]: 3.25 µM
GI50 [9]: 1.73 µM
TGI [9]: 3.13 µM
GI50 [10]: 1.82 µM
TGI [10]: 3.25 µM

COc1cccc(Nc2nccc(Nc3ccc4[nH]ncc4c3)n2)c1
GI50 [1]: 0.993 µM
TGI [1]: 2.51 µM
GI50 [2]: 1.44 µM
TGI [2]: 3.19 µM
GI50 [4]: 1.26 µM
TGI [4]: 3.11 µM
GI50 [5]: 1.69 µM
TGI [5]: 3.83 µM
GI50 [6]: 1.48 µM
TGI [6]: 2.86 µM
GI50 [7]: 1.58 µM
TGI [7]: 4.07 µM
GI50 [8]: 1.86 µM
TGI [8]: 5.89 µM

O=C1c2cccc3cc([N+](=O)[O-])cc(c23)C(=O)N1O
TGI [1]: > 100 µM
TGI [2]: > 100 µM
TGI [3]: > 100 µM
TGI [4]: 91.8 µM
TGI [5]: > 100 µM
TGI [6]: > 100 µM
TGI [7]: > 100 µM
TGI [8]: > 100 µM
TGI [10]: > 100 µM

CCCCCc1c(C)[nH]c(/C=c2\[nH]/c(=C3/C=c4ccccc4=N3)cc2OC)c1C
GI50 [1]: 0.0425 µM
TGI [1]: 1.56 µM
GI50 [2]: 0.0248 µM
TGI [2]: 0.0676 µM
GI50 [4]: 0.0425 µM
TGI [4]: 1.43 µM
GI50 [5]: 0.236 µM
TGI [5]: 3.1 µM
GI50 [6]: 0.101 µM
TGI [6]: 1.7 µM
GI50 [7]: 0.109 µM
TGI [7]: 0.699 µM
GI50 [8]: 0.077 µM
TGI [8]: 2.43 µM
GI50 [9]: 0.0604 µM
TGI [9]: 0.659 µM
GI50 [10]: 0.125 µM
TGI [10]: 1.22 µM

Brc1ccc(Br)nn1
GI50 [1]: 1.96 µM
TGI [1]: 5.07 µM
GI50 [2]: 1.41 µM
TGI [2]: 2.88 µM
GI50 [3]: 1.75 µM
TGI [3]: 3.7 µM
GI50 [4]: 1.21 µM
TGI [4]: 2.64 µM
GI50 [5]: 1.38 µM
TGI [5]: 4.23 µM
GI50 [6]: 0.243 µM
TGI [6]: 0.928 µM
GI50 [8]: 1.9 µM
TGI [8]: 5.04 µM
GI50 [9]: 3.25 µM
TGI [9]: 12.2 µM
GI50 [10]: 1.42 µM
TGI [10]: 2.76 µM

C=C1CO[C@@H]2C[C@@H]1CC/C(C)=C/CC/C(C)=C/CC[C@@]2(C)O
GI50 [1]: 20.3 µM
TGI [1]: 41.8 µM
GI50 [2]: 2.25 µM
TGI [2]: 21.4 µM
GI50 [4]: 25.4 µM
TGI [4]: > 63.6 µM
GI50 [5]: 21.8 µM
TGI [5]: 44.6 µM
GI50 [6]: 21.1 µM
TGI [6]: 45.2 µM
GI50 [7]: 24.1 µM
TGI [7]: 51.6 µM
GI50 [8]: 20.1 µM
TGI [8]: 50.5 µM
GI50 [9]: 23.4 µM
TGI [9]: 43.6 µM
GI50 [10]: 16.8 µM
TGI [10]: 38.3 µM

CCS/C(Nc1ccccc1)=C(\C#N)C(=O)N/N=C/c1ccc(Cl)cc1Cl
GI50 [1]: 2.39 µM
TGI [1]: > 100 µM
GI50 [2]: 5.88 µM
TGI [2]: > 100 µM
GI50 [3]: 9.3 µM
TGI [3]: > 100 µM
GI50 [4]: 2.99 µM
TGI [4]: > 100 µM
GI50 [5]: 6.47 µM
TGI [5]: > 100 µM
GI50 [7]: 2.8 µM
TGI [7]: 10.7 µM
GI50 [8]: 6.58 µM
TGI [8]: > 100 µM
GI50 [9]: 2.89 µM
TGI [9]: 20.6 µM
GI50 [10]: 23.6 µM
TGI [10]: > 100 µM
